Data set [1] can be described thus: Cell viability test (WST-1) in Min6 cells. The data set is classed as cell-based, mouse. The note with it: mouse. As for the experimental part: (§1) (A) Effect of drug candidates on insulin secretion in β-cells. Min6 cells were incubated in serum-free oxygen-saturated Krebs-Ringer bicarbonate (KRB) buffer containing high glucose (16.7 mM), CCF642 and drug candidates for 30 min. The supernatants were collected for insulin ELISA assay. (B) Min6 cells were incubated with PBS, CCF642 and drug candidates, respectively, for 24 h. Following PBS washing, WST-1 was added into each well for additional 20 min incubation.
(§2) Min6 cells were cultured at 37° C. in complete medium. Cell cytotoxicity was determined using WST-1 (4-[3-(4-Iodophenyl)-2-(4-nitrophenyl)-2H-5-tetrazolio]-1,3-benzene Disulfonate) according to the manutkturet's guidelines. Briefly, the cells were grown in a […] containing complete medium in the presence of the indicated compounds for 24 h. Following PBS washing, WST-1 was added into each well for additional 20 min incubation. After removing the medium, the cells in the plate were measured with a SpectraMax i3x reader at 450 nm.
A general note: Formazan colour is commonly taken as a measure of viable cells.

Data set [2] relates to Min6 cells. The data set is described as follows: Glucose-stimulated insulin secretion in Min6 cells (insulin ELISA). The data set is classed as cell-based, mouse. The note with it: for insulin secretion in β-cells, in words: Min6 β-cells. As for the experimental part: as §1
Min6 cells were grown in complete Dulbecco's modified Eagle medium (DMEM) medium containing 10% fetal bovine serum, 100 units/ml penicillin and 100 µg/ml streptomycin in a 5% CO2 incubator in the presence of 3.3 mM glucose unless indicated otherwise. Min6 cells were pre-incubated in serum-free oxygen-saturated Krebs-Ringer bicarbonate (KRB) buffer containing 3.3 mM glucose at 37° C. for 30 min. The cells (7.5×10^4) were then incubated with KRB buffer containing high glucose (16.7 mM) or low glucose (3.3 mM) for an additional 30 min. The supernatants were collected for insulin ELISA assay.

Data set [3] concerns the target T1, PDIA4 (Homo sapiens, UniProt P13667).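 Also: enzymatic activity of PDIA4 read as absorbance at 595 nm, inhibition given as percent decrease relative to vehicle-treated control.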
T1 sequence (P13667 21-645): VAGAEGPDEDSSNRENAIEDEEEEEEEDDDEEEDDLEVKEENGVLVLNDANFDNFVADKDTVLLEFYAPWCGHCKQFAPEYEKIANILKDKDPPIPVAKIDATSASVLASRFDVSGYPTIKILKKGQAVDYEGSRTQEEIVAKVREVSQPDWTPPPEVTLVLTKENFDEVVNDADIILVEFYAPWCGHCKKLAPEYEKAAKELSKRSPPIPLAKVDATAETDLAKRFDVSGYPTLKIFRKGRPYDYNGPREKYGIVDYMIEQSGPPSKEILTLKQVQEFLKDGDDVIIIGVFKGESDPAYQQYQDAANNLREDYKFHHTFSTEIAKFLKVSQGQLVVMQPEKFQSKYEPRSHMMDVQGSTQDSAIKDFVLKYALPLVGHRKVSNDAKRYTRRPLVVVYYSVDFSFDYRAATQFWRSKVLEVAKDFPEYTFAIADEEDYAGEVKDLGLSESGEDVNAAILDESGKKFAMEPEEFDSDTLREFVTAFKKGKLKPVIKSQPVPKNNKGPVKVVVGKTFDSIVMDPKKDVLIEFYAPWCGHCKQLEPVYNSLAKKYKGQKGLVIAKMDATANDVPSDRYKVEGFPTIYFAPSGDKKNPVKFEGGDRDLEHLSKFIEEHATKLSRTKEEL
Briefly: biochemical.
Procedure: Recombinant PDI proteins PDIA4 (23 pM) was incubated with insulin (0.2 mM) and DTT (0.1 mM) in the presence of vehicle and compounds at the indicated doses for 30 min at 25° C. The mixture was, measured using a SpectraMax i3x reader at 595 nm based on the manufacturer's instructions (Molecular device, CA, USA). Inhibition of the enzymatic activity PDIA4 is calculated by the formula, 100%×(OD595 of vehicle−OD595 of CP)/(OD595 of vehicle) as published previously.

Data set [4] relates to Min6 cells. Briefly: Cell viability test (WST-1) in Min6 cells. It is filed as cell-based, mouse. As for the experimental part:
as §1, §2

Data set [5] has as its system db/db mice. Briefly: Anti-diabetes effect in db/db mice (blood glucose). It is filed as in vivo, mouse. The following applies: CPD 8 2.5 mg/kg, metformin 60 mg/kg; for fasting blood glucose (FBG) / postprandial blood glucose (PBG): sitagliptin 30 mg/kg. As for the experimental part:
(A-B) New-onset diabetes, Lepr^db/db mice, are grouped and treated with PBS vehicle (CTR), sitagliptin (STG, 30 Mg/kg), CPD8 (2.5 mg/kg), and a combination of CPD8 (2.5 mg/kg) and metformin […]) (CPD8+Met) for the indicated time. Fasting blood glucose (FBG (A)) and postprandial blood glucose (PBG (B)) of the mice were monitored. The value (n) is number of mice indicated in parentheses.
Moreover, we examined the in vivo anti-diabetes effect of CPD 8, one of drug candidates for Pdia4 inhibition, in db/db mice, a mouse model of type 2 diabetes. […] PBG in db/db mice (FIG. 4B).

The mark [6] stands for this setting: Table 5, 24 h, WST-1, read-out: CC50.
Setting [7] is: Min6, a mouse β-cells, read-out: EC50 values, insulin-releasing action.
The mark [8] stands for this setting: Mus musculus, 0.5 h, Table 5, insulin secretion, Min6 cells, high glucose (16.7 mM), 30 min, read-out: EC50.

Read-outs that look alike come from different tables or passages of the source.

One may read the CC50 as the concentration giving 50% cytotoxicity. Usually EC50 stands for the concentration at which the effect is half-maximal. One may read the IC50 as the concentration at which inhibition is half-maximal.

With `C#CC(=O)Nc1cc(OC)c(OCCCN(C(=O)C#C)C(=O)Cc2ccccc2C(F)(F)F)cc1C(=O)OC` [58s, methyl 4-methoxy-2-propiolamido-5-(3-(N-(2-(2-(trifluoromethyl)phenyl)acetyl)propiolamido)propoxy)benzoate], the figures for the CC50 at 24 h in data set [1] (setting [6]) and in data set [1] (read-out: CC50 values) were 64900 nM and > 100000 nM, respectively. Also, the results for the concentration giving a half-maximal response (EC50) in data set [2] (setting [7]) and in data set [2] (setting [8]) were 30 nM and 20 nM, respectively. In addition, in data set [2], the “insulin secretion in β-cells, in words” value was “could augment insulin secretion”.

Consider `C#CC(=O)Nc1cc(OC)c(OCCCN(C(=O)C#C)C(=O)Cc2cccc(C(F)(F)F)c2)cc1C(=O)OC` [58t, methyl 4-methoxy-2-propiolamido-5-(3-(N-(2-(3-(trifluoromethyl)phenyl)acetyl)propiolamido)propoxy)benzoate], for which the CC50 at 24 h in data set [1] (setting [6]) was > 100000 nM; in data set [1] (read-out: CC50 values), 64900 nM. The same compound came in with an IC50 in data set [3] of 800 nM. The EC50 in data set [2] (setting [7]) was 20 nM; in data set [2] (setting [8]), 30 nM. In addition, in data set [2], the “insulin secretion in β-cells, in words” value was “could augment insulin secretion”. In addition, the “SI (CC50/EC50)” value in data set [2] (Table 5, Min6 cells) is reported as >3333.

As to `C#CC(=O)Nc1cc(OC)c(OCCCN(C(=O)C#C)C(=O)c2cnco2)cc1C(=O)OC` [58v, methyl 4-methoxy-2-propiolamido-5-(3-(N-propioloyloxazole-5-carboxamido)propoxy)benzoate], the CC50 at 24 h in data set [1] (setting [6]) and in data set [1] (read-out: CC50 values) was > 100000 nM each time. Moreover, in data set [3], inhibition was half-maximal at 300 nM (IC50). Also, the EC50 in data set [2] (setting [7]) and in data set [2] (setting [8]) was 5 nM throughout. For the same compound, in data set [2], the “insulin secretion in β-cells, in words” value is listed as “could augment insulin secretion”. Further, the “SI (CC50/EC50)” value in data set [2] (Table 5, Min6 cells) is reported as >20000.

`COc1ccc(N2C(=O)/C(=C\c3ccc([N+](=O)[O-])s3)SC2=S)cc1` [CCF642, reference compound]: the CC50 in data set [4] (setting [6]) and in data set [4] (read-out: CC50 values) was 23900 nM throughout. Moreover, the EC50 in data set [2] (setting [7]) was found to be 250 nM. For the same compound, the “insulin secretion in β-cells, in words” value in data set [2] is listed as “could augment insulin secretion”. Moreover, the “SI (CC50/EC50)” value in data set [2] (Table 5, Min6 cells) came out at 95.6.

`C#CC(=O)Nc1cc(OC)c(OC)cc1C(=O)O` [CPD 8, 4,5-dimethoxy-2-propiolamidobenzoic acid]: in data set [1] (setting [6]), the CC50 at 24 h is > 100000 nM. For the same compound, in data set [1] (read-out: CC50 values), the CC50 at 24 h was > 100000 nM. The compound further registered an IC50 in data set [3] of 4000 nM. Also, in data set [5], the “reversal of type 2 diabetes” value was “can reverse type 2 diabetes”, the “fasting blood glucose (FBG)” value is reported as “significantly decreased” and the “postprandial blood glucose (PBG)” value was “significantly decreased”. The half-maximal effective concentration (EC50) in data set [2] (setting [7]) stood at 60 nM. In addition, in data set [2], the “insulin secretion in β-cells, in words” value was “could augment insulin secretion”. Moreover, the EC50 in data set [2] (setting [8]) was determined as 60 nM. In addition, the “SI (CC50/EC50)” value in data set [2] (Table 5, Min6 cells) was >1666.7.

Regarding `CC#CC#CC#CC#CCCC(CO)O[C@@H]1O[C@H](CO)[C@@H](O)[C@H](O)[C@H]1O` (stereo partly shown) [CPD P1, cytopiloyne, reference compound], the CC50 at 24 h in data set [1] (setting [6]) and in data set [1] (read-out: CC50 values) was > 100000 nM each time. The compound further showed an IC50 in data set [3] of 210000 nM. Besides, the EC50 in data set [2] (setting [7]) and in data set [2] (setting [8]) was 1550 nM in each case. For the same compound, the “insulin secretion in β-cells, in words” value in data set [2] was “could augment insulin secretion”. Moreover, the “SI (CC50/EC50)” value in data set [2] (Table 5, Min6 cells) was >64.5.

On to `N[C@@H](CC(=O)N1CCn2c(nnc2C(F)(F)F)C1)Cc1cc(F)c(F)cc1F` [sitagliptin, reference compound], for which, in data set [5], the “fasting blood glucose (FBG)” value was “significantly reduced” and the “postprandial blood glucose (PBG)” value was “significantly reduced”.

Source of the values: US12605353B2, “PDIA4 inhibitors and use thereof for inhibiting β-cell pathogenesis and treating diabetes” (Academia Sinica, priority 2019, dated 2026).
